Square brackets hold non-standard residues; d marks the D form. Peptide text beside a SMILES is read from it. * marks the point of attachment. NH(1-CH2NMe2-cBu) = CN(C)CC1(N*)CCC1; Benzoyl(4-F) = O=C(c1ccc(F)cc1)*; hCha = N[C@@H](CCC1CCCCC1)C(=O)O; Aib = CC(C)(N)C(=O)O; βAla = NCCC(=O)O

By IC50 is commonly meant the midpoint of a concentration-inhibition curve.

The test system of data set [1] is cutaneous squamous cell carcinoma cell line SCC12. Description: In vitro anti-proliferative assay (resazurin) in SCC12. Conditions: SCC12, 72 hours. The class given is cell-based. The text has this:
Methodology. The cutaneous squamous cell carcinoma cell culture SCC12 was cultivated in keratinocyte-SFM media (KSFM, Cat #17005042, Gibco) supplemented with human recombinant epidermal growth factor 1-53 (EGF 1-53) and bovine pituitary extract (BFE).
Vehicle treated wells were set to 100% viability.
(In general: Resazurin is reduced to fluorescent resorufin, in cell work by metabolically active cells.)

A further data set has as its system M130107. Conditions: read-out: IC50 M130107. The procedure: (§1) For the maintenance of healthy human fibroblast cell culture Dulbecco's Modified Eagle Medium (DMEM, Cat #11966025, Gibco) supplemented with 10% heat-inactivated fetal bovine serum (Cat #S006420H01, BioWest) was used. For the maintenance of melanoma cell cultures RPMI-1640 (Cat #R0883, Gibco) supplemented with L-glutamine (Cat #25030-081, Gibco), 1 mM sodium pyruvate (Cat #S8636, Sigma-Aldrich), 10% heat-inactivated fetal bovine serum (Cat #S006420H01, BioWest) and 1% Penicillin-Streptomycin (Cat #15140122, Gibco) was used. The MyLa_CTCL cell cultures were cultivated in RPMI 1640 Medium (R0883) supplemented with 2 mM L-Glutamine (G7513), 10 U/ml IL-2 (H7041), 10 U/ml IL-4 (H7291) and 10% Human AB Serum (H4522). The cutaneous squamous cell carcinoma cell cultures A431 and SCC13 were cultivated in Dulbecco's Modified Eagle Medium (DMEM, Cat #11966025, Gibco) supplemented with 10% heat-inactivated fetal bovine serum (Cat #S006420H01, BioWest).
(§2) To determine the half maximal inhibitory concentrations (IC50's) serial dilution of compounds in DMSO to 1000× was performed (10 mM, 5 mM, 1 mM, 500 μM, 250 μM, 100 μM, 10 μM, 1 μM). 2 μl of these dilutions were further diluted in 198 μl growth medium with supplements, mixed well and 10 μl were further dispensed in triplicates to the 96-well plates containing cells in 90 μl.
(§3) For each drug condition and cell culture (for each row of the triplicate) a well with only RPMI-1640 complete/KSFM/DMEM media and one with media and DMSO were made as controls. DMSO was never at a higher concentration than 0.2% v/v. Triplicates were seeded for each condition. On the day of the assay, the medium was exchanged with cell culture media containing 0.1% of Resazurin-sodium salt stock solution (stock: 0.015 mg/ml, in PBS, Cat #R7017, Sigma-Aldrich). […] With a fluorescence-based plate reader (Infinite M200 Pro, Tecan, Switzerland) using excitations between […] and emissions at 590 nM the cell-culture plates were readout. The calculations and graphs are performed with GraphPad Prism program. Vehicle treated wells were set to 100% viability.

Data set [2] has as its system cutaneous T cell lymphoma MyLa_CTCL. Conditions: read-out: IC50 MyLa_CTCL. The procedure:
as §1, §2, §3

Data set [3] concerns cutaneous melanoma M010817. Conditions: read-out: IC50 M010817. The procedure:
as §1, §2, §3

Data set [4] deals with cutaneous melanoma M150507. Conditions: read-out: IC50 M150507. The procedure: as §1, §2, §3
The test system of data set [5] is cutaneous melanoma M150672. Conditions: read-out: IC50 M150672. The procedure: as §1, §2, §3
The subject of data set [6] is cutaneous squamous cell carcinoma cell line A431_SCC. Conditions: read-out: IC50 A431. The procedure: as §1, §2, §3
Data set [7] deals with cutaneous squamous cell carcinoma cell line SCC13. Conditions: read-out: IC50 SCC13. The procedure:
as §1, §2, §3

The test system of data set [8] is healthy skin dermal fibroblasts. The procedure:
as §1, §2, §3

For data set [9] the following is noted: Franz cells, 48 hours, donor 0.1% 6027 in DMSO, acceptor PBS + 2% Volpo; % of total 6027.
Protocol: Pig ears from freshly slaughtered pigs, not older than 5 months and of both sexes, were obtained from the slaughterhouse Bell Schweiz AG (Basel, Switzerland). The ears were washed with tap water and the hairs were removed with an electric clipper. The skin was separated from the underlying cartilage from the backside of the ear by using a scalpel. After washing the skin again, it was stored in aluminium foil at −20° C. for no longer than one month.
After thawing the frozen skin, it was cut into adequate circles and the skin thickness was measured with a calliper. The skin was mounted into the FDC, tightly sealed with Teflon band and fixed in special designed holder. Then the acceptor compartment was equipped with a magnetic stirrer, filled with placebo formulation and equilibrated for one hour. To check the barrier integrity and to be sure that there are no invisible damages from skin preparation TEWL (transepidermal water loss) was measured. The FDCs were then placed in the water bath +32° C.±1 over a magnetic stirrer (500 rpm). Due to differences of each FDC, the skin application area for drug permeation was measured and calculated for each cell in advance. Consequently, the amount of 6027 for the donor compartment had to be adjusted for the infinite-dose experiment to 284.1 μL/cm^2.
At predefined time points 50 μL samples were taken from the acceptor compartment. The missing volume was replaced with the corresponding placebo formulation.
At the end of the permeation experiment and before reassembling the FDCs, the donor compartments were washed out with 10 mL ACN:H2O (55:45).
To extract 6027 from the skin, the frozen skin was cut into small pieces and grinded by a cryogenic grinder Freezer/Mill® from Spex SamplePrep (Metuchen, USA). The setting was 10 min precooling and a rate of 10 CPS for 4 cycles with 2 minutes. The resulting powder was resuspended in 2 mL ACN:H2O (55:45). […]
The concentrations of 6027 were determined by using HPLC-MS from Agilent Technologies. […]

Turning to `CC(C)C[C@H](NC(=O)[C@H](CCC1CCCCC1)NC(=O)[C@@H]1CCCN1C(=O)c1ccc(F)cc1)C(=O)NC(C)(C)C(=O)N[C@@H](CC(C)C)C(=O)N[C@@H](CC(C)C)C(=O)NC(C)(C)C(=O)NC(C)(C)C(=O)NCCC(=O)NC1(CN(C)C)CCC1` [Compound 6027, (2S)-2-[(2S)-4-cyclohexyl-2-{[(2S)-1-(4-fluorobenzoyl)pyrrolidin-2-yl]formamido}butanamido]-N-(1-{[(1S)-1-{[(1S)-1-({1-[(1-{[2-({1-[(dimethylamino)methyl]cyclobutyl}carbamoyl)ethyl]carbamoyl}-1-methylethyl)carbamoyl]-1-methylethyl}carbamoyl)-3-methylbutyl]carbamoyl}-3-methylbutyl]carbamoyl}-1-methylethyl)-4-methylpentanamide] ({Benzoyl(4-F)}-P[hCha]L[Aib]LL[Aib][Aib][βAla]-{NH(1-CH2NMe2-cBu)}), the IC50 in data set [1] came to 118 nM; in the data set on M130107, 169 nM; in data set [2], 451 nM; in data set [3], 60 nM; in data set [4], 56 nM; in [5], 122 nM. Further, the IC50 stood at 70 nM in data set [6]; 191 nM in data set [7]; 3030 nM in data set [8] (read-out: IC50 Fibroblast, healthy skin dermal fibroblasts). Besides, in data set [8], the “cytotoxicity against healthy skin dermal fibroblasts compared with skin cancer cell lines” value is “less pronounced”. Also, the “Acceptor (%)” value in [9] came out at 0.2%. Further, in data set [9], the “Donor (%)” value is listed as 79%. Also, the “Skin extraction (%) (skin penetration)” value in data set [9] stood at 16%.
